From PMC11292009, “Mapping protein binding sites by photoreactive fragment pharmacophores” (Communications Chemistry, 2024)

How the values were obtained:
Type in all cases: binding
myoglobin (Myo) = test: Intact protein MS photoaffinity labeling screen, myoglobin; conditions: intact protein MS after 10 min irradiation
Method: (§1) Using a plate-based format with one fragment per well, each fragment was incubated with the target proteins for 15 min to allow for the formation of non-covalent interactions. […] Finally, the results were directly analyzed from the plate using intact protein mass spectrometry by observing the mass additions that correspond to successful labeling (Fig. 2c, for labeling % values see Supplementary data). The library was first characterized against three benchmark proteins like carbonic anhydrase (CA), lysozyme (Lyo), and myoglobin (Myo).

[1] = tested on: carbonic anhydrase II (CA); test: Intact protein MS photoaffinity labeling screen, carbonic anhydrase; conditions: intact protein MS after 10 min irradiation
Method: as §1

STAT5B-NTD [2] = tested on: T1, STAT5B-NTD; test: Intact MS photoaffinity labeling screen, STAT5B-NTD (365 nm, UHPLC-MS); conditions: for experimental hit status STAT5B-NTD: 0/1 flag; for MS labeling percentage, STAT5B: STAT5B-NTD, 365 nm 10 min, no photocatalyst; for STAT5B-NTD (experimental hit status): hit flag 1/0, sheet PhP, photoaffinity labeling screen;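 on MS labeling percentage, STAT5B: 0.17 µL of 100 mM DMSO fragment stock added to the protein sample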
T1 construct: His-SUMO (N, cleaved yes); made in house; host or cells: E. coli BL21 RILP
Method: STAT5B protein in 7 µM concentration in pH 7.4 PBS buffer was pre-incubated with 0.17 µL PhP (in 100 mM DMSO solution) for 1 h at room temperature in dark. Irradiation was carried out at 4 °C for 10 min using 365 nm UV lamp.
(§2) During the analysis, the column temperature was maintained at a constant 60 °C, and a sample volume of 3 µL was injected for each analysis. Data acquisition was conducted in positive ion mode within the m/z 100–2000 (mass-to-charge ratio) range. For the full protocol and spectra of the hits, see Supplementary Note 2.

lysozyme (Lyo) = test: Intact protein MS photoaffinity labeling screen, lysozyme; conditions: intact protein MS after 10 min irradiation
Method: as §1

BRD4-BD1 = tested on: T2, BRD4-BD1; test: Intact MS photoaffinity labeling screen, BRD4-BD1 (302 nm, LCMS-TOF); conditions: for experimental hit status BRD4-BD1: 0/1 flag; for MS labeling percentage, BRD4: BRD4-BD1, 302 nm 10 min; for BRD4-BD1 (experimental hit status): hit flag 1/0, sheet PhP, photoaffinity labeling screen
T2 construct: screened the PhP library against the first bromodomain of BRD4 (BRD4-BD1); purchased GSK/GenScript
Method: as §1
(§3) The PhP library was screened against BRD4-BD1 and KRas^G12D as follows. […] The probe plate was placed on ice. 15 μL of protein stock solution (1 μM BRD4-BD1 (GSK/GenScript) or KRas^G12D (GSK/GenScript) in PBS buffer) was dispensed into wells containing fragments. The plate was left on ice for 15 min for incubation, then irradiated at 302 nm for 10 min, and centrifuged (1000 rpm, 1 min) to remove any bubbles. […] The deconvoluted spectra were analyzed using R Studio software.

STAT5B-NTD [3] = tested on: T1, STAT5B-NTD; test: Intact MS labeling screen, STAT5B-NTD conjugated with photocatalyst Ir-G2-PEG3-COOH (450 nm); conditions: 450 nm 10 min;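 further: 0.14 µL of 100 mM DMSO fragment stock added to the conjugate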
Method: For the photocatalysis experiments, 1.4 µL photocatalyst (in 1.4 mM DMSO solution, 10 eq) was pre-incubated with 1.5 µL coupling reagent (0.75 µL, 5.6 mM EDC (20 eq)+0.75 µL 4.2 mM NHS and 1.5 µL 2.1 mM (15 eq) BOP for 30 min in dark. 30 µL STAT5B-NTD (in 7 µM concentration) was added and incubated further at room temperature overnight or at 37 °C for 1 h in dark. After addition of 0.14 µL PhP (in 100 mM DMSO) the solution was further incubated in dark for 1 h. Irradiation was carried out using 450 nm LED lamp (7.6Vx0A) for 10 min at 4 °C.
as §2

KRas^G12D = tested on: T3, KRas^G12D; test: Intact MS photoaffinity labeling screen, KRas G12D (302 nm, LCMS-TOF); conditions: for experimental hit status KRAS-G12D: 0/1 flag; for MS labeling percentage, KRas: KRas G12D, 302 nm 10 min; for KRAS-G12D (experimental hit status): hit flag 1/0, sheet PhP, photoaffinity labeling screen
T3 construct: purchased GSK/GenScript
Method: as §1, §3

Structure (SMILES)	MS labeling percentage, Myo (myoglobin (Myo)) [%]	MS labeling percentage, CA [1] [%]	experimental hit status STAT5B-NTD (STAT5B-NTD [2])	MS labeling percentage, STAT5B (STAT5B-NTD [2]) [%]	MS labeling percentage, Lyo (lysozyme (Lyo)) [%]	experimental hit status BRD4-BD1 (BRD4-BD1)	MS labeling percentage, BRD4 (BRD4-BD1) [%]	MS labeling percentage, STAT5B+photocat (STAT5B-NTD [3]) [%]	experimental hit status KRAS-G12D (KRas^G12D)	MS labeling percentage, KRas (KRas^G12D) [%]	STAT5B-NTD (experimental hit status) (STAT5B-NTD [2])	BRD4-BD1 (experimental hit status) (BRD4-BD1)	KRAS-G12D (experimental hit status) (KRas^G12D)
Cc1nn(C)cc1CNC(=O)CCC1(C)N=N1 [PhP021, Cc1nn(C)cc1CNC(=O)CCC2(C)N=N2]	0.3	0.7	0	1	0	0	0.9	0.4	0	0.2	–	–	–
CC1(CCC(=O)NCCCCN2CCOCC2)N=N1 [PhP022, N1=NC1(C)CCC(=O)NCCCCN2CCOCC2]	0.2	0.5	0	1	0	0	0.6	0.4	0	0.5	–	–	–
Cc1cccc2nc(CNC(=O)CCC3(C)N=N3)[nH]c12 [PhP023, c1ccc(C)c(c12)[nH]c(n2)CNC(=O)CCC3(C)N=N3]	0.2	0.3	0	1	0	0	0.9	0	0	0.7	–	–	–
CC1(CCC(=O)NCc2cccc(C(=O)OC(C)(C)C)c2)N=N1 [PhP024, CC(C)(C)OC(=O)c1cccc(c1)CNC(=O)CCC2(C)N=N2]	0.2	0.2	0	0	0	0	1.4	7.2	0	0.1	–	–	–
CC1(CCC(=O)NCc2ccccc2NS(C)(=O)=O)N=N1 [PhP025, CS(=O)(=O)Nc1ccccc1CNC(=O)CCC2(C)N=N2]	0.1	0.2	0	0	0	0	0.2	1.2	0	0.1	–	–	–
Cc1ccc(C(NC(=O)CCC2(C)N=N2)c2ccccn2)cc1 (stereo not shown) [PhP026, n1ccccc1C(c(cc2)ccc2C)NC(=O)CCC3(C)N=N3]	0.2	0.4	0	1	0.4	0	0.4	5	0	0.3	–	–	–
CC1(CCC(=O)NCCNC(=O)c2ccc(Cl)cc2)N=N1 [PhP027, N1=NC1(C)CCC(=O)NCCNC(=O)c2ccc(Cl)cc2]	0.2	0.4	0	1	0	0	0.5	5.2	0	0.1	–	–	–
CC1(CCC(=O)NCc2ccccc2O)N=N1 [PhP028, N1=NC1(C)CCC(=O)NCc2ccccc2O]	0.2	0	0	1	0	0	57	0.3	0	0.4	–	–	–
CC1(CCC(=O)NC2CCCN(c3ncc[nH]c3=O)C2)N=N1 (stereo not shown) [PhP029, N1=NC1(C)CCC(=O)NC2CCCN(C2)c3ncc[nH]c3=O]	0.1	0	0	0	0	0	0.2	0.3	0	0	–	–	–
Cc1ccc2[nH]c(CNC(=O)CCC3(C)N=N3)nc2c1 [PhP030, c1cc(C)cc(c12)nc([nH]2)CNC(=O)CCC3(C)N=N3]	0.4	0.7	0	0	0	0	1.2	0.7	0	1.4	–	–	–
CC1(CCC(=O)NCCc2nc3ccccc3[nH]2)N=N1 [PhP031, N1=NC1(C)CCC(=O)NCCc(n2)[nH]c(c23)cccc3]	0.3	0.6	0	1	0	0	0.8	0.5	0	0.4	–	–	–
CCC(NC(=O)CCC1(C)N=N1)c1ccccc1OC (stereo not shown) [PhP032, N1=NC1(C)CCC(=O)NC(CC)c2ccccc2OC]	0.3	0.2	0	2.9	0	0	0.3	1.9	0	0	–	–	–
CC1(CCC(=O)NCc2ccc(-n3ccnc3)cc2)N=N1 [PhP033, N1=NC1(C)CCC(=O)NCc2ccc(cc2)-n3ccnc3]	0.3	0.5	0	1	0	0	1.1	0.3	0	0.5	–	–	–
COC(=O)[C@@H](Cc1c[nH]c2ccccc12)NC(=O)CCC1(C)N=N1 [PhP036, N1=NC1(C)CCC(=O)N[C@@H](C(=O)OC)Cc(c[nH]2)c(c23)cccc3]	0	0.2	0	2	0.4	0	0.6	5.4	0	1	–	–	–
COc1ccc(CNC(=O)CCC2(C)N=N2)cn1 [PhP039, COc1ccc(cn1)CNC(=O)CCC2(C)N=N2]	0.3	0.5	–	1	0	–	0.5	1.3	–	0.2	0	0	0
Cc1nc(NC(=O)CCC2(C)N=N2)c2cnn(-c3ccc(F)cc3)c2n1 [PhP041, c1cc(F)ccc1-n(nc2)c(c23)nc(C)nc3NC(=O)CCC4(C)N=N4]	0	0.3	–	0	0	–	0.2	10.6	–	0.3	0	0	0
